Results published in patent publication US12403137B2, “Compounds and methods of use” (Tango Therapeutics, Inc., priority 2019, dated 2025).
Values belong to the compound of their own block, whether it stands above or below them.

Columns and labels:
PRMT5 [1] = biological target: T1, PRMT5 (Homo sapiens, UniProt O14744); experiment: PRMT5 inhibition assay with no cofactor; format: biochemical; conditions: against PRMT5 with no cofactor; read-out: No Co-factor IC50
T1 construct: purchased Viva (custom protein)
T1 sequence (O14744 whole entry): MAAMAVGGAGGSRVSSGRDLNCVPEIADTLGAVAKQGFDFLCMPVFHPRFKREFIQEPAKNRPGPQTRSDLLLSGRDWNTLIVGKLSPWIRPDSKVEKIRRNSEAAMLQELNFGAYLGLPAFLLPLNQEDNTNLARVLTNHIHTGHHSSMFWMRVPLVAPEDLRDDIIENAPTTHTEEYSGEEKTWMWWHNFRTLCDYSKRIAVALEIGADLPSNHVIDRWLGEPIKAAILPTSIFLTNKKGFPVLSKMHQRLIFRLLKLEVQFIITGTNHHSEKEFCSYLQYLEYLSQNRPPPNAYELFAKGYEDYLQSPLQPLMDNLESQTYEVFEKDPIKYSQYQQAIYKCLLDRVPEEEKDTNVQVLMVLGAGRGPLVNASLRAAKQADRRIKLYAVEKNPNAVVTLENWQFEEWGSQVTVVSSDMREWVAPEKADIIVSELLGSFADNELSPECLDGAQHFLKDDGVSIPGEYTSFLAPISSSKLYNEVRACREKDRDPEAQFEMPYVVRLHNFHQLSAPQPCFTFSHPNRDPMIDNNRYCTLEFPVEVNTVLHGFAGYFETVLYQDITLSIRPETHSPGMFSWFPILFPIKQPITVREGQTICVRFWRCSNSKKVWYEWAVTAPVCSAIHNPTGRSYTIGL
T1 sequence (Q9BQA1 whole entry partner): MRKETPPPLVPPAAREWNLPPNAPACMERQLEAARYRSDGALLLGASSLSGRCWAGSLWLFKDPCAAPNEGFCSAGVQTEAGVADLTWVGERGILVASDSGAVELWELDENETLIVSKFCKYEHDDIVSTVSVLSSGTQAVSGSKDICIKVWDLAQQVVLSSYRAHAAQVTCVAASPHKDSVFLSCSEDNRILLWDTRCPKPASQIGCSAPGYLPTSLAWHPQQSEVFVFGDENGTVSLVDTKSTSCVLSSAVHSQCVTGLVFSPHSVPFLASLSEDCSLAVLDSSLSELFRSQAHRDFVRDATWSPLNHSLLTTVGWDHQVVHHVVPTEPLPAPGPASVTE

PRMT5 [2] = biological target: T1, PRMT5; experiment: PRMT5 inhibition assay with SAM as cofactor; format: biochemical; conditions: against PRMT5 in the presence of SAM as cofactor
From the text: (§1) The Ki values can be calculated from the IC50 values as described in the Examples section. As detailed in the Examples section, for the assay performed in the presence of SAM, IC50=Ki×1.5 (Ki=IC50/1.5). For the assay performed in the presence of MTA, IC50=Ki×13.5 (Ki=IC50/13.5). Column 6 indicates the ratio between the Ki of compounds in the presence of SAM and the Ki of compounds in the presence of MTA

PRMT5 [3] = biological target: T1, PRMT5; experiment: PRMT5 inhibition assay with MTA as cofactor; format: biochemical; conditions: for IC50: against PRMT5 with MTA as cofactor; for SAM/MTA Ratio: ratio of Ki in the presence of SAM to Ki in the presence of MTA, Ki=IC50/1.5 (SAM), Ki=IC50/13.5 (MTA)
From the text: as §1

[4] = system: HAP1 MTAP-deleted cell line; experiment: SDMA in-cell western assay, HAP1 MTAP-deleted; format: cell-based; conditions: for IC50: Homo sapiens, HAP1 MTAP-deleted (MTAP-null) cell line; for MTAP Intact/Deleted Ratio: IC50 ratio HAP1 MTAP-intact / HAP1 MTAP-deleted, >=3 fold considered MTAP-selective
Method: (§2) Table 1 also indicates IC50 values in an MTAP-isogenic cell line pair for exemplary compounds in an SDMA in-cell western assay (columns 7-8). HAP1 MTAP-intact is a cell line in which endogenous levels of MTAP are expressed, and HAP1 MTAP-deleted is an MTAP-null cell line. For Table 1, “a*” and “aa*” indicates an IC50 of <1 μM, “b*” and “bb*” indicates an IC50 equal to or greater than 1 μM but less than 10 μM, and “c*” and “cc*” indicates an IC50 of greater than or equal to 10 μM in the HAP1 MTAP-intact and the HAP1 MTAP-deleted assays, respectively. In column 9, “A*” indicates an IC50 ratio greater than or equal to 10 fold between the IC50 in the HAP1 MTAP-intact cell line and the HAP1 MTAP-deleted cell line; “B*” indicates an IC50 ratio greater than or equal to 3 fold but lower than 10 fold between the IC50 in the HAP1 MTAP-intact cell line and the HAP1 MTAP-deleted cell line; “C*” indicates an IC50 ratio of less than 3 fold between the IC50 in the HAP1 MTAP-intact cell line and the HAP1 MTAP-deleted cell line. Compounds with a ratio in the SDMA in-cell western assay of equal to or greater than 3 fold are considered MTAP-selective.

[5] = system: HAP1 MTAP-intact cell line; experiment: SDMA in-cell western assay, HAP1 MTAP-intact; format: cell-based; conditions: for IC50: Homo sapiens
Method: as §2

- IC50 (PRMT5 [1]): < 50 nM
- IC50 (PRMT5 [3]): < 50 nM
- IC50 [4]: < 1000 nM
- IC50 [5]: < 1 µM
Compound: Cc1ncoc1COc1ccc2c(c1)CN[C@H]([C@H](O)CNC(=O)c1cc(NC3CC4(CCC4)C3)nc(N3CCN(C(C)C)CC3)c1)C2 [Compound 70]
- MTAP Intact/Deleted Ratio [4]: B* (an IC50 ratio greater than or equal to 3 fold but lower than 10 fold between the IC50 in the HAP1 MTAP-intact cell line and the HAP1 MTAP-deleted cell line)

- IC50 (PRMT5 [1]): < 50 nM
- IC50 (PRMT5 [3]): < 50 nM
- IC50 [4]: 1000 to 10000 nM
- IC50 [5]: ≥ 10 µM
Compound: CC(=O)N1CCC(Nc2cc(C(=O)NC[C@@H](O)[C@@H]3Cc4ccc(OCc5ocnc5C)cc4CN3)cc(N3CCN(C(C)C)CC3)n2)CC1 [Compound 71]
- MTAP Intact/Deleted Ratio [4]: B* (an IC50 ratio greater than or equal to 3 fold but lower than 10 fold between the IC50 in the HAP1 MTAP-intact cell line and the HAP1 MTAP-deleted cell line)

- IC50 (PRMT5 [1]): 50 to 500 nM
- IC50 (PRMT5 [3]): < 50 nM
- IC50 [4]: < 1000 nM
- HAP1 MTAP Intact IC50 [5]: B*
Compound: CC(=O)N1CCC(Nc2cc(C(=O)NC[C@@H](O)[C@@H]3Cc4ccc(OCc5ocnc5C)cc4CN3)nc(N3CCN(C(C)C)CC3)n2)CC1 [Compound 72]
- MTAP Intact/Deleted Ratio [4]: A* (an IC50 ratio greater than or equal to 10 fold between the IC50 in the HAP1 MTAP-intact cell line and the HAP1 MTAP-deleted cell line)

- IC50 (PRMT5 [1]): 50 to 500 nM
- IC50 (PRMT5 [3]): < 50 nM
- IC50 [4]: < 1000 nM
- IC50 [5]: 1 to 10 µM
Compound: Cc1ncoc1COc1ccc2c(c1)CN[C@H]([C@H](O)CNC(=O)c1cc(NC3CCC3)nc(C3CCN(C(C)C)CC3)c1)C2 [Compound 78]
- MTAP Intact/Deleted Ratio [4]: A* (an IC50 ratio greater than or equal to 10 fold between the IC50 in the HAP1 MTAP-intact cell line and the HAP1 MTAP-deleted cell line)

- IC50 (PRMT5 [1]): 50 to 500 nM
- IC50 (PRMT5 [3]): < 50 nM
- IC50 [4]: < 1000 nM
- IC50 [5]: 1 to 10 µM
Compound: COCCN(C)c1nc(NC2CCN(C(C)=O)CC2)cc(C(=O)NC[C@@H](O)[C@@H]2Cc3ccc(OCc4ocnc4C)cc3CN2)n1 [Compound 79]
- MTAP Intact/Deleted Ratio [4]: A* (an IC50 ratio greater than or equal to 10 fold between the IC50 in the HAP1 MTAP-intact cell line and the HAP1 MTAP-deleted cell line)

- IC50 (PRMT5 [1]): 50 to 500 nM
- IC50 (PRMT5 [3]): < 50 nM
- IC50 [4]: < 1000 nM
- IC50 [5]: 1 to 10 µM
Compound: CC(=O)N1CCC(Nc2cc(C(=O)NC[C@@H](O)[C@@H]3Cc4ccc(OCc5ocnc5C)cc4CN3)nc(N3CCCC3)n2)CC1 [Compound 81]
- MTAP Intact/Deleted Ratio [4]: A* (an IC50 ratio greater than or equal to 10 fold between the IC50 in the HAP1 MTAP-intact cell line and the HAP1 MTAP-deleted cell line)

- IC50 (PRMT5 [1]): 50 to 500 nM
- IC50 (PRMT5 [3]): < 50 nM
- IC50 [4]: < 1000 nM
- IC50 [5]: ≥ 10 µM
Compound: COCCN(C)c1nc(NC2CN(C(C)=O)C2)cc(C(=O)NC[C@@H](O)[C@@H]2Cc3ccc(OCc4ocnc4C)cc3CN2)n1 [Compound 82]
- MTAP Intact/Deleted Ratio [4]: A* (an IC50 ratio greater than or equal to 10 fold between the IC50 in the HAP1 MTAP-intact cell line and the HAP1 MTAP-deleted cell line)

The next lines start with the compound.

Compound: O=C(NC[C@@H](O)[C@@H]1Cc2ccc(OCc3cnco3)cc2CN1)c1ccc(C(=O)N2CCOCC2)cc1 [Compound 1, N—((R)-2-hydroxy-2-((S)-7-(oxazol-5-ylmethoxy)-1,2,3,4-tetrahydroisoquinolin-3-yl)ethyl)-4-(morpholine-4-carbonyl)benzamide]
- IC50 (PRMT5 [1]): ≥ 5000 nM
- IC50 (PRMT5 [2]): 50 to 500 nM
- IC50 (PRMT5 [3]): 50 to 500 nM
- SAM/MTA Ratio (PRMT5 [3]): A (a Ki ratio greater than or equal to 10 fold between the Ki in the presence of SAM and the Ki in the presence of MTA)
- IC50 [4]: ≥ 10000 nM
- MTAP Intact/Deleted Ratio [4]: C* (an IC50 ratio of less than 3 fold between the IC50 in the HAP1 MTAP-intact cell line and the HAP1 MTAP-deleted cell line)
- IC50 [5]: ≥ 10 µM

Compound: Cn1nccc1COc1ccc2c(c1)CN[C@H]([C@H](O)CNC(=O)c1ccc(C(=O)N3CCOCC3)cc1)C2 [Compound 2, N—((R)-2-hydroxy-2-((S)-7-((1-methyl-1H-pyrazol-5-yl)methoxy)-1,2,3,4-tetrahydroisoquinolin-3-yl)ethyl)-4-(morpholine-4-carbonyl)benzamide]
- IC50 (PRMT5 [1]): 500 to 5000 nM
- IC50 (PRMT5 [2]): 50 to 500 nM
- IC50 (PRMT5 [3]): 50 to 500 nM
- SAM/MTA Ratio (PRMT5 [3]): A (a Ki ratio greater than or equal to 10 fold between the Ki in the presence of SAM and the Ki in the presence of MTA)
- IC50 [4]: ≥ 10000 nM
- MTAP Intact/Deleted Ratio [4]: C* (an IC50 ratio of less than 3 fold between the IC50 in the HAP1 MTAP-intact cell line and the HAP1 MTAP-deleted cell line)
- IC50 [5]: ≥ 10 µM

Compound: Cc1ncoc1COc1ccc2c(c1)CN[C@H]([C@H](O)CNC(=O)c1ccc(C(=O)N3CCOCC3)cc1)C2 [Compound 3, N—((R)-2-hydroxy-2-((S)-7-((4-methyloxazol-5-yl)methoxy)-1,2,3,4-tetrahydroisoquinolin-3-yl)ethyl)-4-(morpholine-4-carbonyl)benzamide]
- IC50 (PRMT5 [1]): 500 to 5000 nM
- IC50 (PRMT5 [2]): 50 to 500 nM
- IC50 (PRMT5 [3]): 50 to 500 nM
- SAM/MTA Ratio (PRMT5 [3]): A (a Ki ratio greater than or equal to 10 fold between the Ki in the presence of SAM and the Ki in the presence of MTA)
- IC50 [4]: 1000 to 10000 nM
- MTAP Intact/Deleted Ratio [4]: C* (an IC50 ratio of less than 3 fold between the IC50 in the HAP1 MTAP-intact cell line and the HAP1 MTAP-deleted cell line)
- IC50 [5]: ≥ 10 µM

Compound: O=C(NC[C@@H](O)[C@@H]1Cc2ccc(OCc3cn[nH]c3)cc2CN1)c1ccc(C(=O)N2CCOCC2)cc1 [Compound 4, N—((R)-2-((S)-7-((1H-pyrazol-4-yl)methoxy)-1,2,3,4-tetrahydroisoquinolin-3-yl)-2-hydroxyethyl)-4-(morpholine-4-carbonyl)benzamide]
- IC50 (PRMT5 [1]): 50 to 500 nM
- IC50 (PRMT5 [2]): 50 to 500 nM
- IC50 (PRMT5 [3]): 50 to 500 nM
- SAM/MTA Ratio (PRMT5 [3]): A (a Ki ratio greater than or equal to 10 fold between the Ki in the presence of SAM and the Ki in the presence of MTA)
- IC50 [4]: 1000 to 10000 nM
- MTAP Intact/Deleted Ratio [4]: C* (an IC50 ratio of less than 3 fold between the IC50 in the HAP1 MTAP-intact cell line and the HAP1 MTAP-deleted cell line)
- IC50 [5]: ≥ 10 µM

Compound: CCOc1cc(C(=O)N2C3CCC2COC3)ccc1C(=O)NC[C@@H](O)[C@@H]1Cc2ccc(OCc3ccnn3C)cc2CN1 [Compound 5, 4-(3-oxa-8-azabicyclo[3.2.1]octane-8-carbonyl)-2-ethoxy-N—((R)-2-hydroxy-2-((S)-7-((1-methyl-1H-pyrazol-5-yl)methoxy)-1,2,3,4-tetrahydroisoquinolin-3-yl)ethyl)benzamide]
- IC50 (PRMT5 [1]): 500 to 5000 nM
- IC50 (PRMT5 [2]): 50 to 500 nM
- IC50 (PRMT5 [3]): 50 to 500 nM
- SAM/MTA Ratio (PRMT5 [3]): A (a Ki ratio greater than or equal to 10 fold between the Ki in the presence of SAM and the Ki in the presence of MTA)
- IC50 [4]: < 1000 nM
- MTAP Intact/Deleted Ratio [4]: C* (an IC50 ratio of less than 3 fold between the IC50 in the HAP1 MTAP-intact cell line and the HAP1 MTAP-deleted cell line)
- IC50 [5]: < 1 µM

Compound: COCCN(C)c1nc(NC2COC2)cc(C(=O)NC[C@@H](O)[C@@H]2Cc3ccc(OCc4ocnc4C)cc3CN2)n1 [Compound 37, N—((R)-2-hydroxy-2-((S)-7-((4-methyloxazol-5-yl)methoxy)-1,2,3,4-tetrahydroisoquinolin-3-yl)ethyl)-2-((2-methoxyethyl)(methyl)amino)-6-(oxetan-3-ylamino)pyrimidine-4-carboxamide]
- IC50 (PRMT5 [1]): ≥ 5000 nM
- IC50 (PRMT5 [2]): 500 to 5000 nM
- IC50 (PRMT5 [3]): 500 to 5000 nM
- SAM/MTA Ratio (PRMT5 [3]): A (a Ki ratio greater than or equal to 10 fold between the Ki in the presence of SAM and the Ki in the presence of MTA)

Compound: CCCN(C)c1nc(NC2COC2)cc(C(=O)NC[C@@H](O)[C@@H]2Cc3ccc(OCc4ocnc4C)cc3CN2)n1 [Compound 38, N—((R)-2-hydroxy-2-((S)-7-((4-methyloxazol-5-yl)methoxy)-1,2,3,4-tetrahydroisoquinolin-3-yl)ethyl)-2-(methyl(propyl)amino)-6-(oxetan-3-ylamino)pyrimidine-4-carboxamide]
- IC50 (PRMT5 [1]): ≥ 5000 nM
- IC50 (PRMT5 [2]): 500 to 5000 nM
- IC50 (PRMT5 [3]): 500 to 5000 nM
- SAM/MTA Ratio (PRMT5 [3]): A (a Ki ratio greater than or equal to 10 fold between the Ki in the presence of SAM and the Ki in the presence of MTA)

Compound: COCCN(C)c1cc(C(=O)NC[C@@H](O)[C@@H]2Cc3ccc(OCc4ocnc4C)cc3CN2)cc(NC2CN(C(C)=O)C2)n1 [Compound 69]
- IC50 (PRMT5 [1]): 50 to 500 nM
- IC50 (PRMT5 [3]): < 50 nM
- IC50 [4]: 1000 to 10000 nM
- MTAP Intact/Deleted Ratio [4]: C* (an IC50 ratio of less than 3 fold between the IC50 in the HAP1 MTAP-intact cell line and the HAP1 MTAP-deleted cell line)
- IC50 [5]: ≥ 10 µM
